According to US8563516B2, “Foxp3 peptide vaccine” (OncoTherapy Science, Inc., priority 2007, dated 2013):

Legend:
peptide-pulsed T2 cells = test: IFN-gamma ELISPOT on CTLs induced with HLA-A0201 restricted Foxp3 peptides; format: cell-based, human; conditions: FIG. 2A/2B/2C
Source text: (§1) Monocyte-derived dendritic cells (DCs) were used as antigen-presenting cells (APCs) to induce CTL responses against peptides presented on HLA. DCs were generated in vitro as described elsewhere (Horiguchi S. et al. Cancer Res. 59:2950-6). Specifically, peripheral blood mononuclear cells (PBMCs) isolated from normal volunteer (HLA-A*2402 and/or HLA-A*0201) with Ficoll-Plaque (Pharmacia) solution were separated by adherence to plastic tissue culture dish (Becton Dickinson) so as to enrich them for the monocyte fraction. The monocyte-enriched population was cultured in the presence of 1000 U/ml of GM-CSF (R&D System) and 1000 U/ml of IL-4 (R&D System) in AIM-V medium (Invitrogen) containing 2% heat-inactivated autologous serum (AS). After 7 days in the culture, the cytokine-generated DCs were pulsed with 20 mcg/ml of the synthesized peptides in the presence of 3 mcg/ml of beta2-microglobulin for 4 hrs at 20 degrees C. in AIM-V medium. These peptide-pulsed DCs were then inactivated with mitomycin C (MMC) (30 mcg/ml for 30 mins) and mixed at a 1:20 ratio with autologous CD8+ T cells, obtained by positive selection with CD8 Positive Isolation Kit (Dynal). These cultures were set up in 48-well plates (Corning); each well contained 1.5×10^4 peptide-pulsed DCs, 3×10^5 CD8+ T cells and 10 ng/ml of IL-7 (R&D System) in 0.5 ml of AIM-V/2% AS. Three days later, these cultures were supplemented with IL-2 (CHIRON) to a final concentration of 20 IU/ml. On day 7 and 14, the T cells were further restimulated with the peptide-pulsed autologous DCs. The DCs were prepared each time through the same procedure described above. CTL activity was tested against peptide-pulsed A24LCL cells or T2 cells after the 3rd round of peptide stimulation on day 21.
(§2) To examine the specific CTL activity, IFN-gamma ELISPOT assay and IFN-gamma ELISA were performed. Briefly, peptide-pulsed A24-LCL, T2 cell (1×10^4/well) or the cells endogenously expressing Foxp3 and HLA molecule was prepared as a stimulator cells. Cultured CTL lines in 48 wells were used as a responder cells. IFN-gamma ELISPOT assay and IFN-gamma ELISA were performed under manufacture procedure.
Resulting CTLs showing detectable specific CTL activity were shown in FIG. 2A, FIG. 2B and FIG. 2C when performed by IFN-gamma ELISPOT assay.

[1] = test system: peptide-pulsed A24LCL cells or T2 cells; test: In vitro CTL induction by peptide-loaded dendritic cells (summary statements); format: cell-based, human; conditions: for specific CTL activity: against peptide pulsed target cells; for establishment of CTLs: in vitro stimulation of T-cells by DCs loaded with peptide
Source text: Confirmation of CTL inducibility can be accomplished by inducing antigen-presenting cells carrying human MHC antigens (for example, B-lymphocytes, macrophages, and dendritic cells), or more specifically dendritic cells derived from human peripheral blood mononuclear leukocytes, and after stimulation with the peptides, mixing with CD8-positive cells, and then measuring the IFN-gamma produced and released by CTL against the target cells. As the reaction system, transgenic animals that have been produced to express a human HLA antigen (for example, those described in BenMohamed L, Krishnan R, Longmate J, Auge C, Low L, Primus J, Diamond D J, Hum Immunol 61(8): 764-79, 2000 August, Related Articles, Books, Linkout Induction of CTL response by a minimal epitope vaccine in HLA A*0201/DR1 transgenic mice: dependence on HLA class II restricted T(H) response) can be used. For example, the target cells can be radiolabeled with ^51Cr and such, and cytotoxic activity can be calculated from radioactivity released from the target cells. Alternatively, it can be examined by measuring IFN-gamma produced and released by CTL in the presence of antigen-presenting cells that carry immobilized peptides, and visualizing the inhibition zone on the media using anti-IFN-gamma monoclonal antibodies.
as §1, §2

[2] = test system: peptide-pulsed A24LCL cells; test: IFN-gamma ELISPOT on CTLs induced with HLA-A2402 restricted Foxp3 peptides; format: cell-based, human; conditions: FIG. 1A/1B
Source text: as §1, §2
CTLs for the peptides derived from Foxp3 protein were generated according to the method described in the “Materials and Methods”, supra.

HLA-A2 molecule = molecular target: T1, HLA-A2 molecule (Homo sapiens, UniProt P04439, D140Y/D185E/D98H/E176V/E277Q/G131W/G231S/I119V/I121R/I166T/I218V/L300P/L318F/N151K/N90K/P208A/P217A/Q86G/Q94H/R138H/R169H/T345S); test: CTL induction with Foxp3-9-252 substitutions restricted HLA-A*0201; format: cell-based; conditions: FIG. 7C; for IFN-gamma production compared with the control: positive wells
T1 construct: peripheral blood mononuclear cells (PBMCs) isolated from normal volunteer (HLA-A*2402 and/or HLA-A*0201); endogenous in cells; host or cells: monocyte-derived dendritic cells of HLA-A*0201 volunteers; T2 cells as stimulators in the read-out
Experimental: In FIG. 7C CTLs could be induced by stimulation with Foxp3-9-252 substitutions targeted HLA-A2 molecule. CTLs for all substituted peptides targeted HLA-A2 molecule were generated in the way as described in “Materials and Methods”. […] CTL line induced with Foxp3-9-252-9V peptide was used as responder cells. T2 cells incubated with Foxp3-9-252-9V (-solid circle-) or Foxp3-9-252-WT (-open circle-) peptide and without any peptide (-open square-) were used as stimulator cells in this assay (1×10^4 cells/well).
as §1, §2
On the other hand, the present inventers attempted the induction of CTLs using all substitutions restricted HLA-A*0201 including Foxp3-9-252-9V peptide. […] After CTL line induced by stimulation with Foxp3-9-252-9V was established by in vitro expansion, the CTL activity was determined by using stimulator cells pulsed with Foxp3-9-252-WT or Foxp3-9-252-9V peptide.

| Sequence | IFN-gamma production of CTLs stimulated with peptide, compared with the control (peptide-pulsed T2 cells) | specific CTL activity [1] | establishment of CTLs [1] | IFN-gamma production of CTLs stimulated with peptide, compared with the control [2] | also measured |
| --- | --- | --- | --- | --- | --- |
| GINVASLEWV (peptide vaccine) [SEQ ID NO 29] | potent IFN-gamma production | significant and specific CTL activity | CTLs were successfully established |  |  |
| IYHWFTRMF (peptide vaccine) [SEQ ID NO 3] |  | significant and specific CTL activity | CTLs were successfully established | potent IFN-gamma production |  |
| KFHNMRPPF (peptide vaccine) [SEQ ID NO 5] |  | significant and specific CTL activity | CTLs were successfully established | potent IFN-gamma production |  |
| KLLAMQAHL (peptide vaccine) [SEQ ID NO 98] |  |  |  |  | CTL induction by stimulation with substituted peptide (HLA-A2 molecule): CTLs were induced; IFN-gamma production compared with the control (HLA-A2 molecule; listed as Foxp3-9-252-3L): showed IFN-gamma production; IFN-gamma production compared with the control (HLA-A2 molecule; listed as Foxp3-A02-9-252-3L): peptide-dependent IFN-gamma production |
| KLMAMQAHL (peptide vaccine) [SEQ ID NO 97] |  |  |  |  | CTL induction by stimulation with substituted peptide (HLA-A2 molecule): CTLs were induced; IFN-gamma production compared with the control (HLA-A2 molecule; listed as Foxp3-9-252-3M): showed IFN-gamma production; IFN-gamma production compared with the control (HLA-A2 molecule; listed as Foxp3-A02-9-252-3M): peptide-dependent IFN-gamma production |
| KMALTKASSV (peptide vaccine) [SEQ ID NO 24] | potent IFN-gamma production | significant and specific CTL activity | CTLs were successfully established |  |  |
| LLQREMVQSL (peptide vaccine) [SEQ ID NO 28] | potent IFN-gamma production | significant and specific CTL activity | CTLs were successfully established |  |  |
| LQLPTLPLV (peptide vaccine) [SEQ ID NO 16] | potent IFN-gamma production | significant and specific CTL activity | CTLs were successfully established |  |  |
| LVLEKEKLSA (peptide vaccine) [SEQ ID NO 37] | potent IFN-gamma production | significant and specific CTL activity | CTLs were successfully established |  |  |
| QLQLPTLPL (peptide vaccine) [SEQ ID NO 18] | potent IFN-gamma production | significant and specific CTL activity | CTLs were successfully established |  |  |
| RPPFTYATL (peptide vaccine) [SEQ ID NO 8] |  | significant and specific CTL activity | CTLs were successfully established | potent IFN-gamma production |  |
| RTPVLQVHPL (peptide vaccine) [SEQ ID NO 12] |  | significant and specific CTL activity | CTLs were successfully established | potent IFN-gamma production |  |
| SLFAVRRHL (peptide vaccine) [SEQ ID NO 19] | potent IFN-gamma production | significant and specific CTL activity | CTLs were successfully established |  |  |
| SYPLLANGV (peptide vaccine) [SEQ ID NO 9] |  | significant and specific CTL activity | CTLs were successfully established | potent IFN-gamma production |  |
| TLNEIYHWFT (peptide vaccine) [SEQ ID NO 22] | potent IFN-gamma production | significant and specific CTL activity | CTLs were successfully established |  |  |
| VFEEPEDFL (peptide vaccine) [SEQ ID NO 4] |  | significant and specific CTL activity | CTLs were successfully established | potent IFN-gamma production |  |
| VMVAPSGARL (peptide vaccine) [SEQ ID NO 30] | potent IFN-gamma production | significant and specific CTL activity | CTLs were successfully established |  |  |
| WFTRMFAFF (peptide vaccine) [SEQ ID NO 7] |  | significant and specific CTL activity | CTLs were successfully established | potent IFN-gamma production |  |
